Assay [1] concerns the target T1, RAC-alpha serine/threonine-protein kinase (Homo sapiens, UniProt P31749). Nature of the assay: Inhibition of AKT.
Assay [2] can be described thus: Cytotoxicity against human MDA468 cells expressing AKT. In kind it is functional, cell-based, MDA-MB-468.
Assay [3] concerns the target T1, RAC-alpha serine/threonine-protein kinase. Nature of the assay: Inhibition of AKT at < 10 uM.

pIC50: −log10 of the molar value. Active and inactive are the calls of the source. The calls are words filed in the database; no cut-off is given here.

T1 sequence (P31749 whole entry): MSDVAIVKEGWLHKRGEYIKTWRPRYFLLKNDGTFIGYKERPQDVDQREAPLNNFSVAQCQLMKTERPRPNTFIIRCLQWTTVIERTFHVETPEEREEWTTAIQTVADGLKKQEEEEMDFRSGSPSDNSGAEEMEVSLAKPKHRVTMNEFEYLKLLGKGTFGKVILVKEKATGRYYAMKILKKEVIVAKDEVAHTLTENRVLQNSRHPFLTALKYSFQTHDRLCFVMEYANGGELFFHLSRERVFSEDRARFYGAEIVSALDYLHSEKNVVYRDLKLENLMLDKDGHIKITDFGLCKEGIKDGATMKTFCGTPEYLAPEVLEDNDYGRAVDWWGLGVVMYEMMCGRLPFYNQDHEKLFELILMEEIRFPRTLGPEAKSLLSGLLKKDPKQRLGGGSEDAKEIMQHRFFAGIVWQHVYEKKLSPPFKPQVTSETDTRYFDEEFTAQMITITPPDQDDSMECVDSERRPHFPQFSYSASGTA

For orientation: pIC50 means −log10 of the IC50, conventionally taken in molar units. Low readings indicate a large IC50, high ones a small IC50. Turning to `CCC[C@H]1O[C@@H]2CC(=O)O[C@@H]2C2=C1C(=O)c1c(OC)cccc1C2=O`, the pIC50 was 6.30 in assay [1] and 5.95 in assay [2] (Homo sapiens, MDA-MB-468). On the same counts, the results for `O=C1C[C@H]2OCC3=C(C(=O)c4ccccc4C3=O)[C@H]2O1` are 7.36 and 6.10. On the same counts, the results for `O=C1C[C@H]2O[C@H](c3cccs3)C3=C(C(=O)c4ccccc4C3=O)[C@H]2O1` are 7.24 and 6.22. On the same counts, the results for `C[C@H]1O[C@@H]2CC(=O)O[C@@H]2C2=C1C(=O)c1ccccc1C2=O` are 6.82 and 6.32.

In the case of `CCOC(=O)C[C@@H]1CC2=C(C(=O)c3ccccc3C2=O)[C@@H](C)O1`, the result in assay [3] was inactive. On the same count and under the same terms, the result for `CCOC(=O)C[C@@H]1CC2=C(C(=O)c3ccccc3C2=O)[C@@H](c2cccs2)O1` reads “inactive”; that for `CCOC(=O)C[C@@H]1CC2=C(CO1)C(=O)c1ccccc1C2=O`, “inactive”. Regarding `O=C1C[C@H]2O[C@@H](c3cccc(O)c3)C3=C(C(=O)c4ccccc4C3=O)[C@H]2O1` (racemic), the pIC50 is 6.46 in assay [1] and 6.00 in assay [2] (Homo sapiens, MDA-MB-468). The matching figures for `CCC[C@H]1O[C@@H]2CC(=O)O[C@@H]2C2=C1C(=O)c1ccccc1C2=O` (racemic): 6.79 and 6.22.

Consider `CC1(C)O[C@@H]2CC(=O)O[C@@H]2C2=C1C(=O)c1ccccc1C2=O` (racemic), for which the pIC50 in assay [1] is 5.84; in assay [2] (Homo sapiens, MDA-MB-468) it was 6.64. Consider `O=C1C[C@H]2O[C@H](COCc3ccccc3)C3=C(C(=O)c4ccccc4C3=O)[C@H]2O1` (racemic), for which the pIC50 in assay [1] is 7.14; in assay [2] (Homo sapiens, MDA-MB-468), 6.00. `O=C1C[C@H]2O[C@@H](c3ccc(O)cc3)C3=C(C(=O)c4ccccc4C3=O)[C@H]2O1` (racemic): the pIC50 was 7.10 in assay [1] and 6.26 in assay [2] (Homo sapiens, MDA-MB-468). The matching figures for `O=C1C[C@H]2OC3(CCCC3)C3=C(C(=O)c4ccccc4C3=O)[C@H]2O1` (racemic): 6.53 and 5.80.

On to `Nc1ccc([C@@H]2O[C@@H]3CC(=O)O[C@@H]3C3=C2C(=O)c2ccccc2C3=O)cc1` (racemic), for which the pIC50 in assay [1] is 6.07; in assay [2] (Homo sapiens, MDA-MB-468), 6.26. The matching figures for `CCC[C@@H]1O[C@@H]2CC(=O)O[C@@H]2C2=C1C(=O)c1ccccc1C2=O` (racemic): 6.42 and 5.89. As to `CCC[C@@H]1O[C@H](CC(=O)OCC)CC2=C1C(=O)c1ccccc1C2=O` (racemic), the result in assay [3] was inactive. The same measure, in the same setting: the result for `CCC[C@H]1O[C@H](CC(=O)OCC)CC2=C1C(=O)c1ccccc1C2=O` (racemic) reads “inactive”; that for `CCOC(=O)C[C@@H]1CC2=C(C(=O)c3ccccc3C2=O)C(C)(C)O1` (racemic), “inactive”. In the case of `CCOC(=O)C[C@@H]1CC2=C(C(=O)c3ccccc3C2=O)C2(CCCC2)O1` (racemic), the result in assay [3] was inactive. Still for that read-out and setting: the result for `CCOC(=O)C[C@@H]1CC2=C(C(=O)c3ccccc3C2=O)[C@@H](COCc2ccccc2)O1` (racemic) reads “inactive”; that for `CCOC(=O)C[C@@H]1CC2=C(C(=O)c3ccccc3C2=O)[C@H](c2ccc(N)cc2)O1` (racemic), “inactive”. The same measure, in the same setting: the result for `CCOC(=O)C[C@@H]1CC2=C(C(=O)c3ccccc3C2=O)[C@H](c2ccc(O)cc2)O1` (racemic) reads “inactive”. As for `CCOC(=O)C[C@@H]1CC2=C(C(=O)c3ccccc3C2=O)[C@H](c2cccc(O)c2)O1` (racemic), in assay [3], the result was inactive.

For the compound `O=C1C[C@H]2O[C@H](c3ccsc3)C3=C(C(=O)c4ccccc4C3=O)[C@H]2O1` (stereo in doubt; (+)), the pIC50 in assay [1] was 6.91; in assay [2] (Homo sapiens, MDA-MB-468), 6.52.

On to `CCOC(=O)C[C@@H]1CC2=C(C(=O)c3ccccc3C2=O)[C@@H](c2ccsc2)O1` (stereo in doubt; (+)), for which, in assay [3], the outcome was inactive. As for `O=C1C[C@H]2O[C@H](c3ccsc3)C3=C(C(=O)c4ccccc4C3=O)[C@H]2O1` (stereo in doubt; (-)), the pIC50 in assay [1] was 7.00; in assay [2] (mda-mb-468), 6.39. With `CCOC(=O)C[C@@H]1CC2=C(C(=O)c3ccccc3C2=O)[C@@H](c2ccsc2)O1` (stereo in doubt; (-)), the outcome in assay [3] was inactive. In the case of `CCC[C@H]1O[C@H](CC(=O)O)CC2=C1C(=O)c1c(O)cccc1C2=O` [DEOXYFRENOLICIN], the pIC50 was 6.37 in assay [1] and 6.48 in assay [2] (Homo sapiens, MDA-MB-468). On the same counts, the results for `CCC[C@H]1O[C@@H]2CC(=O)O[C@@H]2C2=C1C(=O)c1c(O)cccc1C2=O` [FRENOLICIN B] are 6.70 and 7.22.

The values are drawn from ChEMBL document CHEMBL1153413, “Pyranonaphthoquinone lactones: a new class of AKT selective kinase inhibitors alkylate a regulatory loop cysteine” (J Med Chem, 2009).
